Earlier results as cited in US7947297B2, “Mixtures of phenolic and inorganic materials with antimicrobial activity” (BASF SE, priority 2000, dated 2011).

Conditions: polypropylene samples, Xenon Arc Weather-Ometer at 035 W/m^2, 63° C.

For `Oc1cc(Cl)ccc1Oc1ccc(Cl)cc1Cl` [Irgaguard ® B1000, 2,4,4′-trichloro-2′-hydroxydiphenyl ether], the discoloration upon weathering is listed as “discolor within hours”.
